The values below are quoted from earlier work in patent US20150320675A1, “Modified Release Osmotic Pump for PH-Responsive Drug Delivery” (UNIVERSITY OF UTAH RESEARCH FOUNDATION, priority 2013, published 2015).

The structures appear in SMILES notation.

In one series the target is reverse transcriptase (Human immunodeficiency virus type 1 group M subtype B, UniProt P04585).

On to `Cc1cc(C)cc(C(=O)c2c(C(C)C)c(=O)[nH]c(=O)n2CC2CC2)c1` [IQP-0528, 1-(cyclopropylmethyl)-6-(3,5-dimethylbenzoyl)-5-isopropylpyrimidine-2,4(1H,3H)-dione], for which the “non-nucleoside reverse transcriptase inhibition activity” value on reverse transcriptase was “potent nanomolar”. The entry inhibition activity result in the series with entry is reported as “potent nanomolar”.
